Where a SMILES comes first, the peptide text is derived from it.
What was measured:
Assay in all cases: microbe, parasite or virus in culture
[1] = tested on: E. coli LEC001; type: cell-based, Escherichia coli
Procedure, shortened: (§1)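 Peptides 128→2 μg/mL, 2-fold series; inoculum ~5 × 10^5 CFU/mL from overnight culture (OD600 0.01, mixed 1:1). MHB non-cation-adjusted for bacteria, RPMI 1640 + 2% glucose for fungi. 37 °C, 20 h, OD600. MIC50/MIC90 at 50%/90% inhibition; n ≥ 3.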

[2] = tested on: E. coli NCTC 12923; type: cell-based, Escherichia coli
Procedure, shortened: as §1

[3] = tested on: P. aeruginosa NCTC 13437; type: cell-based, Pseudomonas aeruginosa; settings: P. aeruginosa NCTC 13437 (R)
Procedure, shortened: as §1

[4] = tested on: A. baumannii ATCC 17978; type: cell-based, Acinetobacter baumannii
Procedure, shortened: as §1

[5] = tested on: A. baumannii AYE; type: cell-based, Acinetobacter baumannii; settings: A. baumannii AYE (R)
Procedure, shortened: as §1

[6] = tested on: K. pneumoniae M6; type: cell-based, Klebsiella pneumoniae
Procedure, shortened: as §1

[7] = tested on: K. pneumoniae NCTC 13368; type: cell-based, Klebsiella pneumoniae; settings: K. pneumoniae NCTC 13368 (R)
Procedure, shortened: as §1

[8] = tested on: S. aureus (MRSA) 1199B; type: cell-based, Staphylococcus aureus; settings: S. aureus (MRSA) 1199B (R)
Procedure, shortened: as §1

[9] = tested on: S. aureus (MRSA) NCTC 13616; type: cell-based, Staphylococcus aureus; settings: S. aureus (MRSA) NCTC 13616 (R)
Procedure, shortened: as §1

[10] = tested on: S. aureus (MRSA) USA300; type: cell-based, Staphylococcus aureus; settings: S. aureus (MRSA) USA300 (R)
Procedure, shortened: as §1

[11] = tested on: S. aureus (MSSA) ATCC 9144; type: cell-based, Staphylococcus aureus
Procedure, shortened: as §1

[12] = tested on: C. albicans NCPF 3281; type: cell-based
Procedure, shortened: as §1

[13] = tested on: C. glabrata NCPF 8018; type: cell-based
Procedure, shortened: as §1

[14] = tested on: C. krusei NCPF 3876; type: cell-based
Procedure, shortened: as §1

[15] = tested on: C. parapsilosis NCPF 3209; type: cell-based
Procedure, shortened: as §1

[16] = tested on: C. tropicalis NCPF 8760; type: cell-based
Procedure, shortened: as §1

[17] = E. coli LEC001 (R), MHB, 37 °C, 20 h, OD600, min. three biological repeats
[18] = E. coli NCTC 12923 (S), MHB, ~5×10^5 CFU/mL, 37 °C, 20 h, OD600, min. three biological repeats
[19] = MHB, 37 °C, 20 h, OD600, min. three biological repeats
[20] = A. baumannii ATCC 17978 (S), MHB, 37 °C, 20 h, OD600, min. three biological repeats
[21] = K. pneumoniae M6 (S), MHB, 37 °C, 20 h, OD600, min. three biological repeats
[22] = S. aureus (MSSA) ATCC 9144 (S), MHB, 37 °C, 20 h, OD600, min. three biological repeats
[23] = C. albicans NCPF 3281, 50% growth inhibition, RPMI 1640 + 2% glucose, 37 °C, 20 h
[24] = C. albicans NCPF 3281, 90% growth inhibition, RPMI 1640 + 2% glucose, 37 °C, 20 h
[25] = C. albicans NCPF 3281, shown in µM
[26] = C. glabrata NCPF 8018, 50% growth inhibition, RPMI 1640 + 2% glucose, 37 °C, 20 h
[27] = C. glabrata NCPF 8018, 90% growth inhibition, RPMI 1640 + 2% glucose, 37 °C, 20 h
[28] = C. glabrata NCPF 8018, shown in µM
[29] = C. krusei NCPF 3876, 50% growth inhibition, RPMI 1640 + 2% glucose, 37 °C, 20 h
[30] = C. krusei NCPF 3876, 90% growth inhibition, RPMI 1640 + 2% glucose, 37 °C, 20 h
[31] = C. krusei NCPF 3876, shown in µM
[32] = C. parapsilosis NCPF 3209, 50% growth inhibition, RPMI 1640 + 2% glucose, 37 °C, 20 h
[33] = C. parapsilosis NCPF 3209, 90% growth inhibition, RPMI 1640 + 2% glucose, 37 °C, 20 h
[34] = C. parapsilosis NCPF 3209, shown in µM
[35] = C. tropicalis NCPF 8760, 50% growth inhibition, RPMI 1640 + 2% glucose, 37 °C, 20 h
[36] = C. tropicalis NCPF 8760, 90% growth inhibition, RPMI 1640 + 2% glucose, 37 °C, 20 h
[37] = C. tropicalis NCPF 8760, shown in µM

CC[C@H](C)[C@H](NC(=O)[C@H](CCCCN)NC(=O)[C@H](CC(C)C)NC(=O)[C@H](C)NC(=O)[C@H](C)NC(=O)[C@H](CCCCN)NC(=O)[C@H](CC(C)C)NC(=O)[C@H](C)NC(=O)[C@@H](N)CCCCN)C(=O)NCC(=O)N[C@@H](C)C(=O)N[C@@H](CC(N)=O)C(N)=O [CPF-P3-12a] (H-KALKAALKIGAN-NH2)
> 128 µg/mL: Modal MIC [1, 17] | Modal MIC [2, 18] | Modal MIC [3, 19] | Modal MIC [4, 20] | Modal MIC [5, 19] | Modal MIC [6, 21] | Modal MIC [7, 19] | Modal MIC [8, 19] | Modal MIC [9, 19] | Modal MIC [10, 19] | Modal MIC [11, 22] | Modal MIC50 [12, 23] | Modal MIC90 [12, 24] | Modal MIC50 [13, 26] | Modal MIC90 [13, 27] | Modal MIC50 [14, 29] | Modal MIC90 [14, 30] | Modal MIC50 [15, 32] | Modal MIC90 [15, 33] | Modal MIC50 [16, 35] | Modal MIC90 [16, 36]
> 103.8 µM: Modal MIC ([1]; E. coli LEC001 (R), shown in µM) | Modal MIC ([2]; E. coli NCTC 12923 (S), shown in µM) | Modal MIC ([3]; shown in µM) | Modal MIC ([4]; A. baumannii ATCC 17978 (S), shown in µM) | Modal MIC ([5]; shown in µM) | Modal MIC ([6]; K. pneumoniae M6 (S), shown in µM) | Modal MIC ([7]; shown in µM) | Modal MIC ([8]; shown in µM) | Modal MIC ([9]; shown in µM) | Modal MIC ([10]; shown in µM) | Modal MIC ([11]; S. aureus (MSSA) ATCC 9144 (S), shown in µM) | Modal MIC50 [12, 25] | Modal MIC90 [12, 25] | Modal MIC50 [13, 28] | Modal MIC90 [13, 28] | Modal MIC50 [14, 31] | Modal MIC90 [14, 31] | Modal MIC50 [15, 34] | Modal MIC90 [15, 34] | Modal MIC50 [16, 37] | Modal MIC90 [16, 37]

CC(C)[C@H](NC(=O)CNC(=O)[C@H](CCCNC(=N)N)NC(=O)[C@H](CCCNC(=N)N)NC(=O)[C@H](CS)NC(=O)[C@@H](NC(=O)[C@H](CS)NC(=O)[C@@H](N)CCCNC(=N)N)C(C)C)C(=O)N[C@@H](CS)C(=O)N[C@@H](CCCNC(=N)N)C(=O)N[C@@H](CS)C(=O)N[C@H](C(=O)N[C@@H](CS)C(=O)N[C@@H](CCCNC(=N)N)C(=O)N[C@@H](CCCNC(=N)N)C(N)=O)C(C)C [BTD15a] (H-RCVCRRGVCRCVCRR-NH2; N-terminus assumed)
35 µM: Modal MIC90 ([12]; NCPF 3281, 20 h)
2.2 µM: Modal MIC ([4]; ATCC 17978, 20 h)
> 70.2 µM: Modal MIC ([3]; shown in µM)
8 µg/mL: Modal MIC [2, 18] | Modal MIC [5, 19] | Modal MIC [8, 19] | Modal MIC [9, 19] | Modal MIC [10, 19] | Modal MIC [11, 22] | Modal MIC50 [16, 35] | Modal MIC90 [16, 36]
32 µg/mL: Modal MIC [6, 21] | Modal MIC [7, 19] | Modal MIC50 [12, 23]
70.2 µM: Modal MIC50 ([13]; NCPF 8018, 20 h) | Modal MIC90 ([13]; NCPF 8018, 20 h) | Modal MIC50 ([15]; NCPF 3209, 20 h) | Modal MIC90 ([15]; NCPF 3209, 20 h)
4 µg/mL: Modal MIC [4, 20]
128 µg/mL: Modal MIC50 [13, 26] | Modal MIC90 [13, 27] | Modal MIC50 [15, 32] | Modal MIC90 [15, 33]
> 128 µg/mL: Modal MIC [3, 19]
64 µg/mL: Modal MIC90 [12, 24]
16 µg/mL: Modal MIC [1, 17] | Modal MIC50 [14, 29] | Modal MIC90 [14, 30]
8.8 µM: Modal MIC ([1]; LEC001, 20 h) | Modal MIC50 ([14]; NCPF 3876, 20 h) | Modal MIC90 ([14]; NCPF 3876, 20 h)
17.5 µM: Modal MIC ([6]; M6, 20 h) | Modal MIC ([7]; shown in µM) | Modal MIC50 ([12]; NCPF 3281, 20 h)
4.4 µM: Modal MIC ([2]; NCTC 12923, 20 h) | Modal MIC ([5]; shown in µM) | Modal MIC ([8]; shown in µM) | Modal MIC ([9]; shown in µM) | Modal MIC ([10]; shown in µM) | Modal MIC ([11]; ATCC 9144, 20 h) | Modal MIC50 ([16]; NCPF 8760, 20 h) | Modal MIC90 ([16]; NCPF 8760, 20 h)

Reference: PMC11191095, “QSAR Reveals Decreased Lipophilicity of Polar Residues Determines the Selectivity of Antimicrobial Peptide Activity” (ACS Omega, 2024)
